Laboratory results taken from patent US20140303092A1 (CHIMERIX, INC., priority 2011, published 2014).

Assay: Study HDP-CDV-201: safety and tolerability (adverse events, laboratory abnormalities, discontinuations)
Assay type: in vivo, human (adult allogeneic HSCT recipients)
Experimental: Clinical Studies of HDP-CDV were performed and described in detail in the following Examples. For example, HDP-CDV-201 is a placebo-controlled, dose-escalating trial in HSCT CMV (R+) recipients, evaluating the ability of HDP-CDV to prevent or control CMV infection was carried out. Five cohorts were established in which participants or subjects received either placebo or the HDP-CDV orally, in doses ranging from 40 mg weekly (QW) to 200 mg twice weekly (BIW). Subjects who were post-HSCT were enrolled at the time of engraftment and randomized to HDP-CDV or placebo (3 to 1 ratio) and received blinded therapy until approximately 100 day post-transplantation. HDP-CDV doses were 40 mg QW, 100 mg QW, 200 mg QW, 200 mg BIW and 100 mg BIW. Escalation to the next dose was decided by the data monitoring committee after review of the safety data from the previous Cohort. Subjects who developed CMV disease or CMV infection requiring pre-emptive therapy with local standard of care were discontinued from blinded therapy and followed for 4 weeks. Subjects who completed treatment with blinded therapy were followed for 8 weeks post-therapy.
Data from Study HDP-CDV-201 also provided characterization of the safety and tolerability profile of HDP-CDV when administered for the prevention or control of CMV infection in high risk (R^+) post-HSCT adult subjects.
The Safety population (SAFETY) included all randomized subjects who took at least one dose of study treatment. This population was used to summarize safety outcomes based on the treatment actually received, in cases where a subject was treated contrary to the randomization schedule.
The safety and tolerability profile of HDP-CDV, including subject demographics and Baseline characteristics; the AE profile; and laboratory abnormalities of interest were analyzed in the cohorts followed in this investigation.
Subjects completing the treatment period received a full course of study medication; those completing the entire study attended visits through 8 weeks of follow up. Subjects who discontinued treatment may have done so for protocol specified reasons (e.g. development of clinically significant CMV infection requiring preemptive treatment with excluded anti-CMV medications) or for other reasons (e.g., withdrawal, adverse events, loss to follow-up). The disposition of subjects in Study HDP-CDV-201 during the double-blind, placebo-controlled treatment period (through Week 11) is listed by dosing Cohort in TABLE 23.
Adverse events were examined by severity to ensure that all safety signals were identified in this study population. Because of the frequency of events in HSCT recipients, particular attention was given to evaluation of Grade 3 […], 4 (severe), and 5 (fatal) adverse events.
Only those preferred terms for which at least one Grade 3 or higher event was experienced in any treatment group are listed. Cytomegalovirus-related AEs are excluded from this analysis.
HDP-CDV is a lipid conjugate of CDV. Because CDV is known to have adverse effects on renal function and bone marrow, decreased GFR and persistent neutropenia were identified as AEs of special interest. Key renal and hematological (TABLE 30) laboratory parameters were measured and listed below by Study HDP-CDV-201 treatment groups. TABLE 30 includes abnormal levels of serum creatinine, neutrophils, platelets, WBCs, and hemoglobin and includes data at Screening and during the treatment period.
A common metric for unit based dosing of medications is by weight (mg/kg). When the distribution of weights was examined for all subjects participating in the study, the median was 78 kg and the lower 25th percentile weight was approximately 65 kg, which translates to a cut-off of ˜3 mg/kg for a 200 mg total weekly dose. Based upon this approach, a cut-off of 3 mg/kg was used to assess the frequency of diarrhea and associated GI AEs reported for the subjects in Cohorts 3 or 4a (TABLE 40).

CCCCCCCCCCCCCCCCOCCCOP(=O)(O)COC(CO)Cn1ccc(N)nc1=O (stereo not drawn) [HDP-CDV]
TEAE Hypokalaemia, Grade 3 (100 mg BIW): 2 (4.0%)
TEAE Hypokalaemia, Grade 4 (100 mg BIW): 0
TEAE Hypokalaemia, Grade 5 (100 mg BIW): 0
TEAE Hyponatraemia, Frequency (100 mg BIW): 1 (2.0%)
TEAE Hyponatraemia, Grade 2 (100 mg BIW): 0
TEAE Hyponatraemia, Grade 3 (100 mg BIW): 0
TEAE Hyponatraemia, Grade 4 (100 mg BIW): 0
TEAE Hyponatraemia, Grade 5 (100 mg BIW): 0
TEAE LFT Abnormal, Frequency (100 mg BIW): 2 (4.0%)
TEAE LFT Abnormal, Grade 2 (100 mg BIW): 1 (2.0%)
TEAE LFT Abnormal, Grade 3 (100 mg BIW): 0
TEAE LFT Abnormal, Grade 4 (100 mg BIW): 0
TEAE LFT Abnormal, Grade 5 (100 mg BIW): 0
TEAE Leukocytosis, Frequency (100 mg BIW): 2 (4.0%)
TEAE Leukocytosis, Grade 2 (100 mg BIW): 0
TEAE Leukocytosis, Grade 3 (100 mg BIW): 1 (2.0%)
TEAE Leukocytosis, Grade 4 (100 mg BIW): 0
TEAE Leukocytosis, Grade 5 (100 mg BIW): 0
TEAE Nausea, Frequency (100 mg BIW): 17 (34.0%)
TEAE Nausea, Grade 2 (100 mg BIW): 9 (18.0%)
TEAE Nausea, Grade 3 (100 mg BIW): 2 (4.0%)
TEAE Nausea, Grade 4 (100 mg BIW): 0
TEAE Nausea, Grade 5 (100 mg BIW): 0
TEAE Neutropenia, Frequency (100 mg BIW): 10 (20.0%)
TEAE Neutropenia, Grade 2 (100 mg BIW): 2 (4.0%)
TEAE Neutropenia, Grade 3 (100 mg BIW): 5 (10.0%)
TEAE Neutropenia, Grade 4 (100 mg BIW): 2 (4.0%)
TEAE Neutropenia, Grade 5 (100 mg BIW): 0
TEAE Pneumonia, Frequency (100 mg BIW): 5 (10.0%)
TEAE Pneumonia, Grade 2 (100 mg BIW): 1 (2.0%)
TEAE Pneumonia, Grade 3 (100 mg BIW): 3 (6.0%)
TEAE Pneumonia, Grade 4 (100 mg BIW): 0
TEAE Pneumonia, Grade 5 (100 mg BIW): 1 (2.0%)
TEAE Pyrexia, Frequency (100 mg BIW): 10 (20.0%)
TEAE Pyrexia, Grade 2 (100 mg BIW): 4 (8.0%)
TEAE Pyrexia, Grade 3 (100 mg BIW): 1 (2%)
TEAE Pyrexia, Grade 4 (100 mg BIW): 0
TEAE Pyrexia, Grade 5 (100 mg BIW): 0
TEAE Renal Failure, Frequency (100 mg BIW): 5 (10.0%)
TEAE Renal Failure, Grade 2 (100 mg BIW): 1 (2.0%)
TEAE Renal Failure, Grade 3 (100 mg BIW): 1 (2.0%)
TEAE Renal Failure, Grade 4 (100 mg BIW): 1 (2.0%)
TEAE Renal Failure, Grade 5 (100 mg BIW): 0
TEAE Staphylococcal Bacteremia, Frequency (100 mg BIW): 6 (12.0%)
TEAE Staphylococcal Bacteremia, Grade 2 (100 mg BIW): 2 (4.0%)
TEAE Staphylococcal Bacteremia, Grade 3 (100 mg BIW): 3 (6.0%)
TEAE Staphylococcal Bacteremia, Grade 4 (100 mg BIW): 0
TEAE Staphylococcal Bacteremia, Grade 5 (100 mg BIW): 0
TEAE Thrombocytopenia, Frequency (100 mg BIW): 7 (14.0%)
TEAE Thrombocytopenia, Grade 2 (100 mg BIW): 1 (2.0%)
TEAE Thrombocytopenia, Grade 3 (100 mg BIW): 1 (2.0%)
TEAE Thrombocytopenia, Grade 4 (100 mg BIW): 2 (4.0%)
TEAE Thrombocytopenia, Grade 5 (100 mg BIW): 0
TEAE Vomiting, Frequency (100 mg BIW): 22 (44.0%)
TEAE Vomiting, Grade 2 (100 mg BIW): 8 (16.0%)
TEAE Vomiting, Grade 3 (100 mg BIW): 2 (4.0%)
TEAE Vomiting, Grade 4 (100 mg BIW): 0
TEAE Vomiting, Grade 5 (100 mg BIW): 0
subjects requiring treatment with steroids during the study (100 mg BIW): 72%
subjects who interrupted HDP-CDV due to an adverse event (100 mg BIW Cohort): 17 out of 50
Subjects Reporting Diarrhea as an AE (100 mg BIW, n = 50): 26 (52.0%)
Discontinuation: Death (100 mg BIW, active treatment period): 4 (8.0%) Subject n (%)
Discontinuation: Adverse event (100 mg BIW, active treatment period through Week 11): 8 (16.0%) Subject n (%)
TEAE ALT increased, Frequency (100 mg QW): 1 (3.7%)
TEAE ALT increased, Grade 2 (100 mg QW): 0
TEAE ALT increased, Grade 3 (100 mg QW): 1 (3.7%)
TEAE ALT increased, Grade 4 (100 mg QW): 0
TEAE ALT increased, Grade 5 (100 mg QW): 0
TEAE AML, Recurrent, Frequency (100 mg QW): 0
TEAE AML, Recurrent, Grade 2 (100 mg QW): 0
TEAE AML, Recurrent, Grade 3 (100 mg QW): 0
TEAE AML, Recurrent, Grade 4 (100 mg QW): 0
TEAE AML, Recurrent, Grade 5 (100 mg QW): 0
TEAE AST increased, Frequency (100 mg QW): 1 (3.7%)
TEAE AST increased, Grade 2 (100 mg QW): 1 (3.7%)
TEAE AST increased, Grade 3 (100 mg QW): 0
TEAE AST increased, Grade 4 (100 mg QW): 0
TEAE AST increased, Grade 5 (100 mg QW): 0
TEAE Abdominal pain, Frequency (100 mg QW): 2 (7.4%)
TEAE Abdominal pain, Grade 2 (100 mg QW): 0
TEAE Abdominal pain, Grade 3 (100 mg QW): 1 (3.7%)
TEAE Abdominal pain, Grade 4 (100 mg QW): 0
TEAE Abdominal pain, Grade 5 (100 mg QW): 0
TEAE Acute GVHD, Frequency (100 mg QW): 7 (25.5%)
TEAE Acute GVHD, Grade 2 (100 mg QW): 4 (14.8%)
TEAE Acute GVHD, Grade 3 (100 mg QW): 2 (7.3%)
TEAE Arthralgias, Frequency (100 mg QW): 3 (11.1%)
TEAE Arthralgias, Grade 2 (100 mg QW): 0
TEAE Arthralgias, Grade 3 (100 mg QW): 0
TEAE Arthralgias, Grade 4 (100 mg QW): 0
TEAE Arthralgias, Grade 5 (100 mg QW): 0
TEAE Back Pain, Frequency (100 mg QW): 2 (7.4%)
TEAE Back Pain, Grade 2 (100 mg QW): 0
TEAE Back Pain, Grade 3 (100 mg QW): 0
TEAE Back Pain, Grade 4 (100 mg QW): 0
TEAE Back Pain, Grade 5 (100 mg QW): 0
TEAE Decreased appetite, Frequency (100 mg QW): 5 (18.5%)
TEAE Decreased appetite, Grade 2 (100 mg QW): 2 (7.4%)
TEAE Decreased appetite, Grade 3 (100 mg QW): 0
TEAE Decreased appetite, Grade 4 (100 mg QW): 0
TEAE Decreased appetite, Grade 5 (100 mg QW): 0
TEAE Diarrhea, Frequency (100 mg QW): 8 (29.6%)
TEAE Diarrhea, Grade 2 (100 mg QW): 3 (11.1%)
TEAE Diarrhea, Grade 3 (100 mg QW): 0
TEAE Diarrhea, Grade 4 (100 mg QW): 0
TEAE Diarrhea, Grade 5 (100 mg QW): 0
TEAE Fatigue, Frequency (100 mg QW): 3 (11.1%)
TEAE Fatigue, Grade 2 (100 mg QW): 0
TEAE Fatigue, Grade 3 (100 mg QW): 0
TEAE Fatigue, Grade 4 (100 mg QW): 0
TEAE Fatigue, Grade 5 (100 mg QW): 0
